Results as given in patent publication US10730850B2, “Pyridinylmethyl carbamimidoylcarbamate derivatives and their use as AOC3 inhibitors” (Boehringer Ingelheim International GmbH, priority 2016, dated 2020).
pIC50: −log10 of the molar value. Like-named read-outs stand apart in the source and are kept apart here.

Legend:
[1] = In vivo clearance experiment (biliary clearance); details: rat, bile collected 0-180 min
Experimental: Bile flow is continuously collected from animal for 4 hours, including the 1 hour post-surgery recovery period. For short biliary excretion study, blood samples are taken at 0, 5 and 180 min and bile samples collection intervals are: 10 min before dosing and 0-180 min. All blood and bile samples are collected from 2 rats and are not pooled. Bile is kept at 4° C. during the collecting intervals and immediately frozen in dry ice after the collecting period is over.
As biliary clearance is expected to be impaired in patients with liver diseases (Clarke J. D. et. al J. Pharm. Exp. Ther. 348:452-458; Ferslew B. C. et al. Clin. Pharm. & Ther. Vol 97(4) XX), a reduced biliary clearance results in a better predictibitlity of the pharmacokinetics and assessment of safety margins in this patient population.

AOC3 = AOC3 (Homo sapiens (Human), UniProt Q16853); assay: MAO-Glo AOC3 assay (recombinant CHO cells overexpressing AOC3); format: biochemical
AOC3, sequence (Q16853 whole entry): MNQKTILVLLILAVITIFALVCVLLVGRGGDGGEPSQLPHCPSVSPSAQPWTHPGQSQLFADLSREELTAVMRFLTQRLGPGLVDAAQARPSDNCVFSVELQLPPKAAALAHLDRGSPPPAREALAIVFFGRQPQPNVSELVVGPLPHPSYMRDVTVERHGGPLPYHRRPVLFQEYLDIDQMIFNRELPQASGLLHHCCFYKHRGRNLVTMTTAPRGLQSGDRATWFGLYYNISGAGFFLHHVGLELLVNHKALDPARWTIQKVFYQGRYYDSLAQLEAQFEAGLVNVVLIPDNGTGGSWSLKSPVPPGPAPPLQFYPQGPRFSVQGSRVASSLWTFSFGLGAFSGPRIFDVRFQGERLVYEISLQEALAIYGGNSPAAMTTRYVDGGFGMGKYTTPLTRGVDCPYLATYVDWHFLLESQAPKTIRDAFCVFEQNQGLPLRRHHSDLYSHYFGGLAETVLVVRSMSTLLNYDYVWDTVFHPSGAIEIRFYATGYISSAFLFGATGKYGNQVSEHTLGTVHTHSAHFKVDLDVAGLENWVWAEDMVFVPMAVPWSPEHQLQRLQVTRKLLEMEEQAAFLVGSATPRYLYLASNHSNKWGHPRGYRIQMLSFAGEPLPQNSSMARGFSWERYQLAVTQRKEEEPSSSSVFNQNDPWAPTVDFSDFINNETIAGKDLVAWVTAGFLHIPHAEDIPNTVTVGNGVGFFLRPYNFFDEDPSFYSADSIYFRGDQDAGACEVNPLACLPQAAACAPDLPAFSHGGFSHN
Text: The MAO-Glo™ Assay (commercial available from PROMEGA, # V1402) provides a sensitive method for the measurement of monoamine oxidase (MAO) activity (Valley, M. P. et al., 2006, Anal. Biochem. 359: 238-246) from a variety of tissues, biofluids or recombinant expressed or purified enzymes. As substrate a derivate of the beetle luciferin ((4S)-4,5-dihydro-2-(6-hydroxybenzothiazolyl)-4-thiazole-carboxylic acid) is used, which is oxidized at a primary amine moiety. After a spontaneous elimination and a catalyzed esterase reaction, the turnover of the luciferine by the luciferase is recorded as a signal of AOC3 activity.
An aliquot of 3 μL of the compound dilution is added to a 384 well plate (Optiplate, PS, flat bottom, white, PERKIN ELMER, #6007290) with a final DMSO concentration of 6.6%. Recombinant CHO cells, overexpressing the human (1500 cells/well), mouse (1000 cells/well) or rat (500 cells/well) AOC3 enzyme are diluted in reaction buffer and added in a volume of 15 μL to the wells. After incubation for 20 minutes at 37° C., 2 μL of MAO substrate (dissolved in DMSO at 16 mM, adjusted to assay concentration in reaction buffer to a final assay concentration of 20 μM) is added and further incubated for 60 minutes at 37° C. The turnover of the substrate is determined by the addition of 20 μL of the detection-mix which was generated by the addition of reconstitution buffer with esterase (PROMEGA, # V1402) to the luciferine detection reagent (PROMEGA, # V1402). After an incubation period of 20 minutes, the luminescent signal is measured with Envision 2104 Multilabel Reader (PERKIN ELMER).
In the following table the activity expressed as IC50 (nM) of compounds according to the invention is presented wherein the IC50 values are determined in the MAO-Glo™ AOC3 assay as described hereinbefore. The term “Example” refers to the example numbers according to the following experimental section.

hepatocytes = assay: Metabolic stability assay in hepatocyte suspension; format: in vitro ADME; details: 1 μM test compound
Experimental: The metabolic degradation of the test compound is assayed in a hepatocyte suspension. Hepatocytes (typically cryopreserved) are incubated in an appropriate buffer system (e.g. Dulbecco's modified eagle medium plus 3.5 μg glucagon/500 mL, 2.5 mg insulin/500 mL and 3.75 mg/500 mL hydrocortison) containing 5% species serum. Following a (typically) 30 min preincubation in an incubator (37° C., 10% CO2) 5 μl of test compound solution (80 μM; from 2 mM in DMSO stock solution diluted 1:25 with medium) are added into 395 μl hepatocyte suspension (cell density in the range 0.25-5 Mio cells/mL, typically 1 Mio cells/mL; final concentration of test compound 1 μM, final DMSO concentration 0.05%). The cells are incubated for six hours (incubator, orbital shaker) and samples (25 μl) are taken at 0, 0.5, 1, 2, 4 and 6 hours. Samples are transferred into acetonitrile and pelleted by centrifugation (5 min). The supernatant is transferred to a new 96-deepwell plate, evaporated under nitrogen and resuspended. Decline of parent compound is analyzed by HPLC-MS/MS
CLint is calculated as follows CL_INTRINSIC=Dose/AUC=(C0/CD)/(AUD+clast/k)×1000/60. C0: initial concentration in the incubation [μM], CD: cell density of vital cells [10e6 cells/mL], AUD: area under the data [μM×h], clast: concentration of last data point [μM], k: slope of the regression line for parent decline [h-1].
The calculated in vitro hepatic intrinsic clearance can be scaled up to the intrinsic in vivo hepatic Clearance and used to predict hepatic in vivo blood clearance (CL) by the use of a liver model (well stirred model). CL_INTRINSIC_INVIVO [ml/min/kg]=(CL_INTRINSIC [μL/min/10e6 cells]×hepatocellularity [10e6 cells/g liver]×liver factor [g/kg bodyweight])/1000 CL [ml/min/kg]=CL_INTRINSIC_INVIVO [ml/min/kg]×hepatic blood flow [ml/min/kg]/(CL_INTRINSIC_INVIVO [ml/min/kg]+hepatic blood flow [ml/min/kg])

[2] = comparative compounds of EP 2 695 881
[3] = Table 2, compounds of the present invention, read-out: IC50
[4] = Table 3, compounds of the present invention
[5] = compounds of the present invention

Row | Structure (SMILES) | pIC50 (AOC3; Table 1, read-out: AOC3 IC50) | QH (hepatocytes; Table 4) [%] | also measured
1 | CC(=O)N1CCC(COc2ncc(-c3cccc(COC(=O)NC(=N)N)c3F)cn2)CC1 [11 (221), reference compound] | – | – | Cl (biliary clearance) [1, 2]: 22.4%
2 | CC(=O)N1CCC(C2CN(c3cccc(COC(=O)NC(=N)N)c3F)C2)CC1 [559 (293), reference compound] | – | – | Cl (biliary clearance) [1, 2]: 10.3%
3 | COc1cccc(N2CCN(c3nccc(COC(=O)NC(=N)N)c3F)CC2)c1 [Example 1.068] | 8.15 | 23 | –
4 | COc1ncc(N2CCN(c3nccc(COC(=O)NC(=N)N)c3F)CC2)cn1 [Example 1.072] | 8.40 | 4 | pIC50 (AOC3; [3]): 8.39; QH (hepatocytes; [4]): 3.7%; Cl (biliary clearance) [1, 5]: 1.2%
5 | N=C(N)NC(=O)OCc1ccnc(N2CCC(c3ccc(Cl)cc3)CC2)c1F [Example 1.074] | 8.15 | 24 | –
6 | N=C(N)NC(=O)OCc1ccnc(N2CCN(c3ccc(Cl)cc3)CC2)c1F [Example 1.077] | 8.15 | 30 | –
7 | N#Cc1ccc(N2CCN(c3nccc(COC(=O)NC(=N)N)c3F)CC2)c(F)c1 [Example 1.083] | 8.40 | 11 | –
8 | N=C(N)NC(=O)OCc1ccnc(N2CCC(N3Cc4ccccc4C3=O)CC2)c1F [Example 1.089] | 8.40 | 8 | –
9 | COC(=O)N1CCC(C2CCN(c3nccc(COC(=O)NC(=N)N)c3F)CC2)CC1 [Example 1.095] | 8.52 | 15 | –
10 | N=C(N)NC(=O)OCc1ccnc(N2CCN(c3ccc(C(F)(F)F)nn3)CC2)c1F [Example 1.099] | 8.30 | 9 | –
11 | CN(C)C(=O)c1ccc(N2CCN(c3nccc(COC(=O)NC(=N)N)c3F)CC2)cc1 [Example 1.100] | 8.30 | 9 | –
12 | N=C(N)NC(=O)OCc1ccnc(N2CCC(C3CCN(S(N)(=O)=O)CC3)CC2)c1F [Example 1.104] | 8.05 | 5 | –
13 | CS(=O)(=O)c1ccc(N2CCN(c3nccc(COC(=O)NC(=N)N)c3F)CC2)c(F)c1 [Example 1.106] | 8.22 | 8 | –
14 | N=C(N)NC(=O)OCc1cccc(N2CCN(c3ccc(C(N)=O)cc3)CC2)c1F [reference compound] | – | – | pIC50 (AOC3; Table 2, comparative compounds of EP 2 695 881, read-out: IC50): 8.60; QH (hepatocytes; Table 3, comparative compounds of EP 2 695 881): 47%

Now from value to compound, other results behind:

Row | pIC50 (AOC3; Table 1, read-out: AOC3 IC50) | QH (hepatocytes; Table 4) [%] | Structure (SMILES) | also measured
15 | 8.05 | 14 | N=C(N)NC(=O)OCc1ccnc(N2CCN(c3ccc(Cl)cn3)CC2)c1F [Example 1.078] | –
16 | 8.52 | 10 | N=C(N)NC(=O)OCc1ccnc(N2CCN(c3ccc(C(N)=O)cc3)CC2)c1F [Example 1.084] | pIC50 (AOC3; [3]): 8.55; QH (hepatocytes; [4]): 23%; Cl (biliary clearance) [1, 5]: 2.2%
17 | 8.40 | 85 | CC(=O)c1ccc(N2CCN(c3nccc(COC(=O)NC(=N)N)c3F)CC2)nc1 [Example 1.085] | –
18 | 8.15 | 11 | N=C(N)NC(=O)OCc1ccnc(N2CCN(c3ccc(C(N)=O)cn3)CC2)c1F [Example 1.086] | –
19 | 8.15 | 7 | CNC(=O)c1ccc(N2CCN(c3nccc(COC(=O)NC(=N)N)c3F)CC2)nc1 [Example 1.091] | –
20 | 8.05 | 92 | COC(=O)c1ccc(N2CCN(c3nccc(COC(=O)NC(=N)N)c3F)CC2)nc1 [Example 1.092] | –
21 | 8.15 | <4 | CN(C)C(=O)c1ccc(N2CCN(c3nccc(COC(=O)NC(=N)N)c3F)CC2)nc1 [Example 1.101] | –
22 | 8.10 | <4 | CS(=O)(=O)c1ccc(N2CCN(c3nccc(COC(=O)NC(=N)N)c3F)CC2)nc1 [Example 1.103] | –
